Ki and melting point data for 21 compounds are collected here from patent publication US8586579B2, “Anellated pyridine compounds” (Hoffmann-La Roche Inc., priority 2010, dated 2013).

SMILES strings stand for the structures. Read-outs that look alike come from different tables or passages of the source.

For data set [1], the target named is human D3 receptor (Homo sapiens (Human), UniProt P35462). As to the kind of experiment: Radioligand binding assay, [3H]-spiperone, human D3 receptor. As to conditions: membranes of HEK293 EBNA cells expressing human D3; 0.5 nM [3H]-spiperone. The gist of the method:
(§1)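 Membranes from transiently transfected HEK293 EBNA cells were incubated 1 h at RT with ten compound concentrations (10 μM-0.1 nM) and radioligand: 0.5 nM [3H]-spiperone for D3 (Tris/NaCl/Mg/Ca buffer, pH 7.4) or 1.1 nM [3H]-ketanserin for 5-HT2A (Tris/MgCl2/EGTA, pH 7.4).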

Data set [2] concerns the target human 5-HT2A receptor (Homo sapiens (Human), UniProt P28223). As to the kind of experiment: Radioligand binding assay, [3H]-ketanserin, human 5-HT2A receptor. A digest of the protocol:
as §1

The target of data set [3] is human D2 receptor (Homo sapiens (Human), UniProt P14416). As to the kind of experiment: Radioligand binding assay, [3H]-spiperone, human D2 receptor. The conditions noted are these: membranes of HEK293 EBNA cells expressing human D2; 0.7 nM [3H]-spiperone. A digest of the protocol:
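Membranes from HEK293 EBNA cells transiently expressing human D2 were incubated 1 h at RT with ~0.7 nM [3H]-spiperone and ten compound concentrations (10 μM–0.1 nM) in Tris buffer with NaCl, MgCl2, KCl, CaCl2, EDTA, pH 7.4.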

The mark [4] stands for this setting: membranes of HEK293 EBNA cells expressing human 5-HT2A, 1.1 nM [3H]-ketanserin.

Chain of human D3 receptor (P35462 whole entry): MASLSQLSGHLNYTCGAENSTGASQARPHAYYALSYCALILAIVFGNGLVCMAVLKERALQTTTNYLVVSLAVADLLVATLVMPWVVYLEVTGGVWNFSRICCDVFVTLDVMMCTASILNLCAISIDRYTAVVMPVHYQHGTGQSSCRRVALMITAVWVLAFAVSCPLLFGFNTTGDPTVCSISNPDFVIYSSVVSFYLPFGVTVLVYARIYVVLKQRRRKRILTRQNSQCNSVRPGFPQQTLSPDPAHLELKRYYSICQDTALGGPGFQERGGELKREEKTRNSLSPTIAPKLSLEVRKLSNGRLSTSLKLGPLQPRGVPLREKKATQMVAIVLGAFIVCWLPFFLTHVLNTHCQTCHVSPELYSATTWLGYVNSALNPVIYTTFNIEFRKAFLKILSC
Chain of human 5-HT2A receptor (P28223 whole entry): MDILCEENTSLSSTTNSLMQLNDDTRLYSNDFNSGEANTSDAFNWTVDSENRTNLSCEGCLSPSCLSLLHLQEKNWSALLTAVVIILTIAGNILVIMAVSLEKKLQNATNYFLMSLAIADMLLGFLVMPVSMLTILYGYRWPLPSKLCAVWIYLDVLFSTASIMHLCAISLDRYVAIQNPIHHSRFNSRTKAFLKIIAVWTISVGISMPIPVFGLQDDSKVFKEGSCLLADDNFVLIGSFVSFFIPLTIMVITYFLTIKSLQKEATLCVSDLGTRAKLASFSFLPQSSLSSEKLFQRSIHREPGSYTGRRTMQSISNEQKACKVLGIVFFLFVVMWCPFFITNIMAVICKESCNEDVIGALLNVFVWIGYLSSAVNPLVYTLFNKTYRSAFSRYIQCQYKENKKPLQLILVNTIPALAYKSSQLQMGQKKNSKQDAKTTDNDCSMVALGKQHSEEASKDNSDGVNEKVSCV
Chain of human D2 receptor (P14416 whole entry): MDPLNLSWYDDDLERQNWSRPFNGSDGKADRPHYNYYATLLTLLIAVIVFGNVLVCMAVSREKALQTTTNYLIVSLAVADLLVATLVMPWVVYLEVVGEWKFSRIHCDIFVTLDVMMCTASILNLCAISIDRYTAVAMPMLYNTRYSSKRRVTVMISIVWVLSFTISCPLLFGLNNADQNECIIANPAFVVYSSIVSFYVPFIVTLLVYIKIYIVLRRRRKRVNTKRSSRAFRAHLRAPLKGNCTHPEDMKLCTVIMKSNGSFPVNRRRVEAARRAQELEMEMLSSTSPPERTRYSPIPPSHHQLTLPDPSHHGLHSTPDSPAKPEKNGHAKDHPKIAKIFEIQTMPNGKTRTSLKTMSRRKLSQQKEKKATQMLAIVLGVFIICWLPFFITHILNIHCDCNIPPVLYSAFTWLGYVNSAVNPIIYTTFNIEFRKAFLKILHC

With `O=C(N[C@H]1CC[C@H](CCN2CCN(c3nccc4c3CCO4)CC2)CC1)c1ccc2ncccc2c1` [Example 128, Quinoline-6-carboxylic acid trans-(4-{2-[4-(2,3-dihydro-furo[3,2-c]pyridin-4-yl)-piperazin-1-yl]-ethyl}-cyclohexyl)-amide], the melting point turned out to be 227 °C. Further, the Ki in data set [1] amounted to 20.5 nM. In addition, the Ki in data set [2] (setting [4]) worked out at 23.2 nM. Also, in data set [3], the Ki was found to be 501 nM.
In the same order, the values of `O=C(N[C@H]1CC[C@H](CCN2CCN(c3nccc4c3CCO4)CC2)CC1)C1CCOC1` (mixture of isomers) [Example 42, trans-N-(4-{2-[4-(2,3-Dihydrofuro[3,2-c]pyridin-4-yl)-piperazin-1-yl]-ethyl}-cyclohexyl)-rac-tetrahydrofuran-3-carboxamide] are 208.5 °C, 18.2 nM, 9.9 nM and 609 nM.
In turn, `CS(=O)(=O)CC(=O)N[C@H]1CC[C@H](CCN2CCN(c3nccc4c3CCO4)CC2)CC1` [Example 39, trans-N-(4-{2-[4-(2,3-Dihydrofuro[3,2-c]pyridin-4-yl)-piperazin-1-yl]-ethyl}-cyclohexyl)-methylsulfonyl-acetamide] displayed a melting point of 260.5 °C. Further, the Ki in data set [1] came to 9.8 nM. For the same compound, the Ki in data set [2] came out at 16.1 nM. Further, the Ki in data set [3] came to 1020 nM.
Taken in the same sequence, the figures for `CC(C)C(=O)N[C@H]1CC[C@H](CCN2CCN(c3nccc4c3CCO4)CC2)CC1` [Example 75, trans-N-(4-{2-[4-(2,3-Dihydro-furo[3,2-c]pyridin-4-yl)-piperazin-1-yl]-ethyl}-cyclohexyl)-isobutyramide] were 219 °C, 16.6 nM, 10.2 nM and 705 nM.
`Cc1nc(-c2cccc(C(=O)N[C@H]3CC[C@H](CCN4CCN(c5nccc6c5CCO6)CC4)CC3)c2)no1` [Example 127, trans-N-(4-{2-[4-(2,3-Dihydro-furo[3,2-c]pyridin-4-yl)-piperazin-1-yl]-ethyl}-cyclohexyl)-3-(5-methyl-[1,2,4]oxadiazol-3-yl)-benzamide] yielded a melting point of 218 °C. Besides, the Ki in data set [1] came to 19.5 nM. In addition, the Ki in data set [2] (setting [4]) is 48.9 nM. Further, the inhibition constant (Ki) in data set [3] is 2150 nM.
In the same order, the values of `CC(=O)N[C@H]1CC[C@H](CCN2CCN(c3ncc(C)c4occc34)CC2)CC1` [Example 104, trans-N-(4-{2-[4-(7-Methyl-furo[3,2-c]pyridin-4-yl)-piperazin-1-yl]-ethyl}-cyclohexyl)-acetamide] are 208 °C, 21.5 nM, 13.7 nM and 1460 nM.
Taken in the same sequence, the figures for `CC(C)=CC(=O)N[C@H]1CC[C@H](CCN2CCN(c3nccc4c3CCO4)CC2)CC1` [Example 80, 3-Methyl-but-2-enoic acid trans-(4-{2-[4-(2,3-dihydro-furo[3,2-c]pyridin-4-yl)-piperazin-1-yl]-ethyl}-cyclohexyl)-amide] were 164.5 °C, 15.4 nM, 16.2 nM and 198 nM.
In the same order, the values of `Cc1cc2c(c(N3CCN(CC[C@H]4CC[C@H](NC(=O)C5CCOCC5)CC4)CC3)n1)CCO2` [Example 101, Tetrahydro-pyran-4-carboxylic acid trans-(4-{2-[4-(6-methyl-2,3-dihydro-furo[3,2-c]pyridin-4-yl)-piperazin-1-yl]-ethyl}-cyclohexyl)-amide] are 234.5 °C, 34.6 nM, 58.5 nM and 1950 nM.
With `CC(=O)N[C@H]1CC[C@H](CCN2CCN(c3nccc4c3CCO4)CC2)CC1` [Example 32, trans-N-(4-{2-[4-(2,3-Dihydro-furo[3,2-c]pyridin-4-yl)-piperazin-1-yl]-ethyl}-cyclohexyl)-acetamide], the melting point came out at 260 °C. In addition, the Ki in data set [1] was determined as 12.7 nM. The Ki in data set [2] (setting [4]) is 22.9 nM. The Ki in data set [3] worked out at 770 nM.
In the same order, the values of `CC(=O)N[C@H]1CC[C@H](CCN2CCN(c3ncc(C)c4c3CCO4)CC2)CC1` [Example 108, trans-N-(4-{2-[4-(7-Methyl-2,3-dihydro-furo[3,2-c]pyridin-4-yl)-piperazin-1-yl]-ethyl}-cyclohexyl)-acetamide] are 196.5 °C, 48.2 nM, 67.5 nM and 2310 nM.
As to `CC(C)(C)Oc1ccc(C(=O)N[C@H]2CC[C@H](CCN3CCN(c4nccc5c4CCO5)CC3)CC2)cc1` [Example 136, trans-4-tert-Butoxy-N-(4-{2-[4-(2,3-dihydro-furo[3,2-c]pyridin-4-yl)-piperazin-1-yl]-ethyl}-cyclohexyl)-benzamide], the melting point was found to be 200 °C. Moreover, the Ki in data set [1] is 69.5 nM. Besides, the Ki in data set [2] (setting [4]) turned out to be 41.4 nM. The Ki in data set [3] amounted to 3160 nM.
Take `O=C(CO)N[C@H]1CC[C@H](CCN2CCN(c3nccc4c3CCO4)CC2)CC1` [Example 40, trans-N-(4-{2-[4-(2,3-Dihydrofuro[3,2-c]pyridin-4-yl)-piperazin-1-yl]-ethyl}-cyclohexyl)-hydroxyacetamide]: the melting point worked out at 237 °C. In data set [1], the inhibition constant (Ki) turned out to be 15.9 nM. Moreover, the Ki in data set [2] (setting [4]) amounted to 12.2 nM. For the same compound, the Ki in data set [3] is 1570 nM.
`Cc1cc(CC(=O)N[C@H]2CC[C@H](CCN3CCN(c4nccc5c4CCO5)CC3)CC2)on1` [Example 84, trans-N-(4-{2-[4-(2,3-Dihydro-furo[3,2-c]pyridin-4-yl)-piperazin-1-yl]-ethyl}-cyclohexyl)-2-(3-methyl-isoxazol-5-yl)-acetamide] displayed a melting point of 172.5 °C. In addition, the Ki in data set [1] was determined as 4.01 nM. The inhibition constant Ki in data set [2] (setting [4]) stood at 15.2 nM. Moreover, in data set [3], the Ki turned out to be 1300 nM.
Taken in the same sequence, the figures for `C[C@]1(O)CC[C@H](C(=O)N[C@H]2CC[C@H](CCN3CCN(c4nccc5c4CCO5)CC3)CC2)CC1` [Example 54, trans-4-Hydroxy-4-methyl-cyclohexanecarboxylic acid trans-(4-{2-[4-(2,3-dihydro-furo[3,2-c]pyridin-4-yl)-piperazin-1-yl]-ethyl}-cyclohexyl)-amide] were 171 °C, 51.4 nM, 12.6 nM and 506 nM.
In the same order, the values of `O=C(N[C@H]1CC[C@H](CCN2CCN(c3nccc4c3CCO4)CC2)CC1)c1ccc(-c2ccccc2)cc1` [Example 134, Biphenyl-4-carboxylic acid trans-(4-{2-[4-(2,3-dihydro-furo[3,2-c]pyridin-4-yl)-piperazin-1-yl]-ethyl}-cyclohexyl)-amide] are 232 °C, 18.6 nM, 23.4 nM and 1130 nM.
Taken in the same sequence, the figures for `COCCC(=O)N[C@H]1CC[C@H](CCN2CCN(c3nc(C)cc4occc34)CC2)CC1` [Example 99, trans-3-Methoxy-N-(4-{2-[4-(6-methyl-furo[3,2-c]pyridin-4-yl)-piperazin-1-yl]-ethyl}-cyclohexyl)-propionamide] were 158 °C, 4.8 nM, 86.9 nM and 430 nM.
Regarding `O=C(N[C@H]1CC[C@H](CCN2CCN(c3nccc4c3CCO4)CC2)CC1)C1CCOCC1` [Example 33, trans-N-(4-{2-[4-(2,3-Dihydrofuro[3,2-c]pyridin-4-yl)-piperazin-1-yl]-ethyl}-cyclohexyl)-tetrahydro-2H-pyran-4-carboxamide], the melting point was determined as 263 °C. In addition, the Ki in data set [1] is 38.2 nM. The Ki in data set [2] (setting [4]) came to 5.9 nM. The Ki in data set [3] turned out to be 504 nM.
In turn, `O=C(C[C@H]1CCCO1)N[C@H]1CC[C@H](CCN2CCN(c3nccc4c3CCO4)CC2)CC1` [Example 68, trans-N-(4-{2-[4-(2,3-Dihydro-furo[3,2-c]pyridin-4-yl)-piperazin-1-yl]-ethyl}-cyclohexyl)-2-(R)-(tetrahydro-furan-2-yl)-acetamide] gave a melting point of 183 °C. Further, in data set [1], the Ki amounted to 27.1 nM. Moreover, in data set [2], the Ki came to 14.6 nM. In addition, the Ki in data set [3] was found to be 915 nM.
`CN(C)S(=O)(=O)N[C@H]1CC[C@H](CCN2CCN(c3nccc4c3CCO4)CC2)CC1` [Example 66, N′-trans-(4-{2-[4-(2,3-dihydro-furo[3,2-c]pyridin-4-yl)-piperazin-1-yl]-ethyl}-cyclohexyl)-N,N-dimethyl-sulfamide]: the melting point was found to be 139.5 °C. Further, the Ki in data set [1] stood at 24.9 nM. In data set [2] (setting [4]), the Ki was determined as 11.5 nM. In addition, the Ki in data set [3] is 782 nM.
Compound `O=C(N[C@H]1CC[C@H](CCN2CCN(c3nccc4c3CCO4)CC2)CC1)c1ccc(N2CCS(=O)(=O)CC2)cc1` [Example 125, trans-N-(4-{2-[4-(2,3-Dihydro-furo[3,2-c]pyridin-4-yl)-piperazin-1-yl]-ethyl}-cyclohexyl)-4-(1,1-dioxo-1λ6-thiomorpholin-4-yl)-benzamide] returned a melting point of 261.5 °C. The Ki in data set [1] is 14.4 nM. In data set [2] (setting [4]), the Ki was determined as 16.6 nM. In data set [3], the Ki turned out to be 117 nM.
Compound `O=C(CC1COC1)N[C@H]1CC[C@H](CCN2CCN(c3nccc4c3CCO4)CC2)CC1` [Example 77, trans-N-(4-{2-[4-(2,3-Dihydro-furo[3,2-c]pyridin-4-yl)-piperazin-1-yl]-ethyl}-cyclohexyl)-2-oxetan-3-yl-acetamide] came in with a melting point of 195 °C. The Ki in data set [1] was 12.1 nM. In addition, the Ki in data set [2] (setting [4]) is 11 nM. Further, the Ki in data set [3] was found to be 755 nM.

By Ki is commonly meant a measure of affinity in units of concentration, obtained from inhibition or displacement. What is called melting point is the temperature of the solid-liquid transition.
